Data from US20260325473A1, “N-Beta-Hydroxybutyryl-Amino Acids and Related Compositions and Methods” (The Board of Trustees of the Leland Stanford Junior …, priority 2023, published 2026).

Experiments:
[1] = molecular target: T1, CNDP2 (Mus musculus, UniProt Q9D1A2); experiment: In situ live cell enzyme activity assay, CNDP2- or GFP-transfected HEK293T cells; assay type: cell-based; parameters: expressed in transfected cells; host or cells: HEK293T (lysate); conditions: role: product; BHB-treated; conditioned media
T1 sequence (Q9D1A2 1-475): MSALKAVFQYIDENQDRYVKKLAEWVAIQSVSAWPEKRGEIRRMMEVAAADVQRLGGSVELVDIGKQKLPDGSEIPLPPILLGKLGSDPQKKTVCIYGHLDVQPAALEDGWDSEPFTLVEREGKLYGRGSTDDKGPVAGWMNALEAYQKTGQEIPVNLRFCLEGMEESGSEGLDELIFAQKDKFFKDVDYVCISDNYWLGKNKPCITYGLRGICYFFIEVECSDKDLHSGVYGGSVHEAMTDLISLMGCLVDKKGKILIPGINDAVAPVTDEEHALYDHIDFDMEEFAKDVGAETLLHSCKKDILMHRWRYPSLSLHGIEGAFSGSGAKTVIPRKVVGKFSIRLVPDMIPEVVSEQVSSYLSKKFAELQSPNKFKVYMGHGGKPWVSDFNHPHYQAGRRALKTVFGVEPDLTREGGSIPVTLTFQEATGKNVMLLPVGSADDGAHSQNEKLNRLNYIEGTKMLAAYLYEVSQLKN
Experimental: Cellular enzyme activity assays. Cells were plated in 12-well plates at 70-80% confluence. The next day, cells were washed two times with PBS and incubated in 0.5 ml serum-free medium. After overnight incubation, 400 μl of medium was removed and 20 μl of 1 M HCl were added to acidify the medium and to protonate keto amino acids. Ethyl acetate (400 μl) was added into each sample and reactions were vortexed for 30 s to extract keto amino acids into the organic layer. Reactions were centrifuged at 4° C. for 10 min at 15,000 r.p.m. and total of 300 μl from the top layer was transferred to a new Eppendorf tube and dried down under a stream of nitrogen. The residue was re-suspended in 150 μl of an 2:1:1 mixture of acetonitrile: methanol: water. The mixture was centrifuged at 4° C. for 10 min at 15,000 r.p.m. and the supernatant was transferred to a LC-MS vial. Cells were kept on ice to collect the lysate. PBS (150 μl) was added into each well and the cells scraped into an Eppendorf tube. This step was repeated again to ensure all cells were collected. Cells were then centrifuged at 4° C. for 10 min at 2,000g and the supernatant removed to obtain the cell pellet. A volume of 150 μl of a 2:1:1 mixture of acetonitrile: methanol:water mixture was used to lyse the cells and precipitate large proteins. […]

[2] = Human ketone ester supplementation study, plasma metabolites; assay type: in vivo; conditions: 0.3 g/kg ketone ester, 60 min vs baseline
Experimental: Targeted metabolomics. Targeted measurements were performed using an Agilent 6470 triple quadrupole LC-MS instrument. MS analysis was performed using AJS in negative mode. The AJS source parameters were set as follows: the dry gas temperature was set at 250° C. with a gas flow of 12 l/min and the nebulizer pressure at 25 psi; the sheath gas temperature was set to 300° C. with the sheath gas flow set at 12 l/min; and the capillary voltage was set to 3,500 V. Separation of polar metabolites was performed as described above in the ‘Untargeted measurements of metabolites by LC-MS’ section. Multiple reaction monitoring was performed for the indicated metabolites with the listed dwell times, fragmentor voltage, collision energies, cell accelerator voltages and polarities. Quantification of the endogenous metabolite concentrations were performed by generating a standard curve with known concentrations of each metabolite. Metabolite standards were analyzed alongside the plasma samples using the same targeted triple quadrupole LC/MS method. A calibration standard curve generated from the metabolite standard concentrations and total peak areas were used to calculate the concentrations of each endogenous metabolite. The dilution of the plasma during the sample preparation was also taken into account for the quantification.
Human ketone ester supplementation study. Following screening, eligible subjects participated in a randomized, counter-balanced, double-blind, placebo-controlled crossover trial comparing BHB supplementation versus placebo, separated by a minimum of 2 days (ClinicalTrials.gov ID NCT04194450). Pre-menopausal women were tested in the follicular phase (days 3-9). Participants were asked to refrain from structured exercise and alcohol, limit physical activity, and follow a standardized diet (~50% carbohydrate, ~30% fat, ~20% protein) on the day before each trial. After refraining from medication use for 24 hours, participants reported to the Exercise, Metabolism and Inflammation Laboratory at the University of British Columbia-Okanagan in an overnight fasted state. Anthropometric measurements were obtained prior to insertion of an indwelling intravenous catheter into the antecubital vein for repeated blood sampling. Blood was collected into EDTA tubes (BD, 367863) and immediately centrifuged at 2000 rpm for 15 min and the top layer of plasma was aliquoted and frozen at −80 °C. After baseline (0) blood sample collection, the oral BHB supplement or placebo was consumed in liquid form (~30-65 mL). The BHB supplement (H.V.M.N®, USA) in the form of the ketone monoester (R)-3-hydroxybutyl (R)-3-hydroxybutyrate (AG®, TDeltaS, Oxford, UK) contained 0.4 g mL-1 BHB, natural flavoring, and <2% stevia leaf extract. The taste-matched placebo drink contained the same natural flavoring as the ketone supplement, stevia leaf extract, 5 mL of Bittrex stock (0.005 g of denatonium benzoate powder in 40 ml of water) and 1.5 mL of arrowroot stock (2 g of arrowroot powder in 50 ml of water) to match the bitter flavor and viscosity of the ketone monoester. Supplements were dispensed into opaque 80 ml bottles with volume calculated for 0.3 g BHB/kg body weight and labelled either A or B by a third-party researcher. Blinding was maintained until completion of data collection and analyses.

[3] = molecular target: T1, CNDP2; experiment: Tissue enzyme activity, WT or CNDP2-KO mouse tissue lysates; assay type: biochemical; conditions: role: product; for synthesis activity in WT kidney and gut: 1 h, 37° C
Experimental: Tissue enzyme activity assays. Mouse tissues were mixed with cold PBS and homogenized using a Benchmark BeadBlaster Homogenizer at 4 °C. Protein concentrations were adjusted and the resulting crude was filtered through a 0.45-μm filter to remove insoluble materials. The in vitro reactions were conducted in Eppendorf tubes with 200 μg protein and incubation with the corresponding substrates at 37° C. for 1 hour. After that time, 10 μl of HCl and 400 μl of ethyl acetate were added in the BHB and lactate reactions and the samples were vortexed for 30 s. Reactions were centrifuged at 4° C. for 10 min at 15,000 r.p.m. and total of 300 μl from the top layer was transferred to a new Eppendorf tube and dried down under a stream of nitrogen. The residue was re-suspended in 100 μl of an 2:1:1 mixture of acetonitrile: methanol: water. The mixture was centrifuged at 4° C. for 10 min at 15,000 r.p.m. and the supernatant was transferred to a LC-MS vial. For carnosine reactions, the reactions were not acidified and were directly quenched with 300 μl of an 2:1:1 mixture of acetonitrile: methanol: water after the 1 h incubation and vortexed for 30 s. The mixture was centrifuged at 4° C. for 10 min at 15,000 r.p.m. and the supernatant was transferred to a LC-MS vial.

| keto amino acid production in CNDP2-transfected live cells [1] | elevation of plasma keto amino acid after ketone ester drink [2] [fold] | synthesis activity in WT brain, liver, and quadriceps ([3]; BHB 20 mM + Phe 20 mM) | reduction of synthesis activity in CNDP2-KO vs WT, brain ([3]; BHB 20 mM + Phe 20 mM, brain) [%] | reduction of synthesis activity in CNDP2-KO vs WT, gut ([3]; BHB 20 mM + Phe 20 mM, gut) [%] | reduction of synthesis activity in CNDP2-KO vs WT, kidney ([3]; BHB 20 mM + Phe 20 mM, kidney) [%] | reduction of synthesis activity in CNDP2-KO vs WT, liver ([3]; BHB 20 mM + Phe 20 mM, liver) [%] | reduction of synthesis activity in CNDP2-KO vs WT, quadriceps ([3]; BHB 20 mM + Phe 20 mM, quadriceps) [%] | BHB-amino acid synthesis activity in CNDP2-KO kidney and gut ([3]; BHB 20 mM + amino acid 20 mM) | Structure (SMILES) | synthesis activity in WT kidney and gut ([3]; BHB 20 mM + amino acid 20 mM) |
| --- | --- | --- | --- | --- | --- | --- | --- | --- | --- | --- |
| robust production | 3 | lower, but detectable | > 85 | > 95 | > 95 | > 75 | > 60 | – | CC(O)CC(=O)N[C@@H](Cc1ccccc1)C(=O)O (stereo partly shown) [BHB-Phe, N-betahydroxybutyryl-phenylalanine] | highest BHB-Phe synthesis activity |
| robust production | 2.5 | – | – | – | – | – | – | largely abolished | CC(O)CC(=O)N[C@H](C(=O)O)C(C)C (stereo partly shown) [BHB-Val, N-betahydroxybutyryl-valine] | highest BHB-amino acid synthesis activity |
